Laboratory results as given in US20130338264A1, “CONDENSATION PRODUCTS OF MELAMINE AND PHENYLPHOSPHONIC ACID AND THEIR USE AS FLAME RETARDANTS” (BASF SE, priority 2011, published 2013).

Tests used:
[1] = Decomposition by TGA (thermogravimetric analysis); assay type: physicochemical; conditions: for TGA onset [° C.]: overview table
Description: Melamine hydrogenphenylphosphonate (MPPO) from example 1 (10.000 g, 0.04 mol) is tempered in a glass tube at 300° C./5·10^−1 mbar for 2 h and additional for 22 h. The mass balance is monitored for the residual by gravimetrically methods. The obtained product is characterized by phosphorous content, 1,3,5-triazine components and thermogravimetry.
Based on the results of the thermo gravimetric analysis (TGA) of the compounds in examples A1-A5 one can conclude that the condensation of melamine hydrogene phenyphosphonate occurs in a two step mode. […] The mode of condensation therefore may be controlled in a balanced thermometric and stoichiometric approach. According to example A2-A4 in a temperature range of 280-300° C. melam formation is favoured. However, other temperature profiles could be more suitable for other stoichiometric ratios. The increasing phosphorous content in the compounds of example A2-A3 in comparison to example A5 points to the condensation of phenylphosphonic anions.

Solubility in water = assay type: physicochemical
Description: Solubility in water: 11 g/L (25° C.); 70 g/L (95° C.)

Substance	Decomposition by TGA: onset [1] [°C]	TGA Mass loss at T ° C. [%] ([1]; T = 320 ° C.)	Decomposition by TGA: mass loss at onset ([1]; at onset 277° C.) [%]	TGA onset [° C.] [1] [°C]	Solubility in water (Solubility in water; 25° C.) [mg/mL]	Solubility in water (Solubility in water; 95° C.) [mg/mL]	TGA Mass loss at T ° C. [%] ([1]; T = 372 ° C.)	Decomposition by TGA: mass loss at onset ([1]; at onset 345° C., 1 molÄq H2O) [%]	Decomposition by TGA: mass loss at onset ([1]; at onset 372° C.) [%]	Decomposition by TGA: onset (second step) ([1]; second onset printed) [°C]
Melamine Phenylhydrogenphosphonate (MPPO) [Example A1]	277	320 [−10%]	−12	277	11	70				
Melam Phenylhydrogenphosphonate [Example A5]	345			345			372 [−15%]	−4.5	−55	372
